Assay results reported in PubChem BioAssay AID192 (DTP/NCI, 2004).
Where “and” joins values, the source holds several entries; their conditions need not be identical. Equal values may be shown once. Toxic doses and inconclusive results are not listed. The calls were made as follows: active = survival T/C of 150% or more; inactive = T/C below 125% in these data. Numbered stars: 1 amine (or outer) side, 2 acyl side, 3 side chain; on linkers, the order of the positions; unused ones are H or OH. Bridge positions count the residues as written; N and C are the ends. Square brackets hold non-standard residues; d marks the D form. Peptide text beside a SMILES is read from it. I, II: the chains in the order shown. Actinocin(9to1) = Cc1c2oc3c(C)ccc(C(=O)[*:1])c3nc-2c(C(=O)[*:2])c(N)c1=O; NMeV = CN[CH](C(=O)O)C(C)C; Pip = O=C(O)[CH]1CCCCN1; Sar = CNCC(=O)O

System: BDF1 mice, B16 melanoma ip, median survival T/C
Test: NCI In Vivo Anticancer Drug Screen. Data for tumor model B16 Melanoma (intraperitoneal) in B6D2F1 (BDF1) mice
Settings: endpoint: median survival time, higher = longer survival
Outline: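 The ratio T/C compares compound-treated mice with vehicle-treated controls, using survival or tumor size as the endpoint in a transplantable tumor model.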

[1] = dose: 6.25 mg/kg/injection, schedule: Q01DX009 (ip), vehicle: saline
[2] = dose: 100.0 mg/kg/injection, schedule: Q01DX009 (ip), vehicle: Klucel (hydroxypropylcellulose) (HPC)
[3] = dose: 6.25 mg/kg/injection, schedule: Q01DX009 (ip), vehicle: saline with Tween-80
[4] = dose: 12.5 mg/kg/injection, schedule: Q01DX009 (ip), vehicle: saline with Tween-80
[5] = dose: 12.5 mg/kg/injection, schedule: Q01DX009 (ip), vehicle: saline
[6] = dose: 25.0 mg/kg/injection, schedule: Q01DX009 (ip), vehicle: saline
[7] = dose: 50.0 mg/kg/injection, schedule: Q01DX009 (ip), vehicle: saline
[8] = dose: 100.0 mg/kg/injection, schedule: Q01DX009 (ip), vehicle: saline

Measured: T/C

COC1=C2C[C@@H](C)C[C@@H](OC)[C@@H](O)[C@H](C)/C=C(\C)[C@@H](OC(N)=O)[C@H](OC)/C=C\C=C(/C)C(=O)NC(=CC1=O)C2=O
inactive: dose: 0.5 mg/kg/injection, schedule: Q01DX005 (ip), vehicle: other 110 % of control | dose: 0.5 mg/kg/injection, schedule: Q01DX005 (ip), vehicle: saline with Tween-80 112 % of control | dose: 0.5 mg/kg/injection, schedule: Q01DX005 (ip), vehicle: water 112 % of control and 118 % of control | dose: 0.5 mg/kg/injection, schedule: Q01DX009 (ip), vehicle: saline with Tween-80 110 % of control | dose: 1.0 mg/kg/injection, schedule: Q01DX005 (ip), vehicle: saline with Tween-80 118 % of control | dose: 1.0 mg/kg/injection, schedule: Q01DX005 (ip), vehicle: water 119 % of control | dose: 2.0 mg/kg/injection, schedule: Q01DX005 (ip), vehicle: saline with Tween-80 118 % of control

c1cc[c]([Sn]([c]2ccccc2)([c]2ccccc2)[n]2cccc2)cc1
inactive: [1] 115 % of control

O=C(OC1COC(n2c(=O)oc3ccc(F)cc32)C(OC(=O)c2ccccc2)C1OC(=O)c1ccccc1)c1ccccc1 (stereo unspecified)
inactive: dose: 50.0 mg/kg/injection, schedule: Q01DX009 (ip), vehicle: saline with Tween-80 93 % of control | [2] 89 % of control | dose: 100.0 mg/kg/injection, schedule: Q01DX009 (ip), vehicle: saline with Tween-80 92 % of control | dose: 200.0 mg/kg/injection, schedule: Q01DX009 (ip), vehicle: Klucel (hydroxypropylcellulose) (HPC) 86 % of control | dose: 200.0 mg/kg/injection, schedule: Q01DX009 (ip), vehicle: saline with Tween-80 107 % of control | dose: 400.0 mg/kg/injection, schedule: Q01DX009 (ip), vehicle: saline with Tween-80 90 % of control

CO[C@H](C(=O)[C@@H](O)[C@@H](C)O)[C@@H]1Cc2cc3cc(OC4CC(OC5CC(O)C(O)C(C)O5)C(O)C(C)O4)c(C)c(O)c3c(O)c2C(=O)[C@H]1OC1CC(OC2CC(OC3CC(C)(O)C(O)C(C)O3)C(O)C(C)O2)C(O)C(C)O1 (stereo partly specified)
inactive: dose: 0.02 mg/kg/injection, schedule: Q01DX009 (ip), vehicle: water 103 % of control | dose: 0.05 mg/kg/injection, schedule: Q01DX009 (ip), vehicle: water 106 % of control | dose: 0.06 mg/kg/injection, schedule: Q01DX009 (ip), vehicle: saline 101 % of control | dose: 0.1 mg/kg/injection, schedule: Q01DX009 (ip), vehicle: water 100 % of control and 103 % of control | dose: 0.12 mg/kg/injection, schedule: Q01DX009 (ip), vehicle: saline 101 % of control | dose: 0.12 mg/kg/injection, schedule: Q01DX009 (ip), vehicle: water 96 % of control | dose: 0.13 mg/kg/injection, schedule: Q01DX009 (ip), vehicle: clinical formulation 100 % of control | dose: 0.13 mg/kg/injection, schedule: Q01DX009 (ip), vehicle: saline 100 % of control and 109 % of control | dose: 0.13 mg/kg/injection, schedule: Q01DX009 (ip), vehicle: water 94 % of control | dose: 0.2 mg/kg/injection, schedule: Q01DX009 (ip), vehicle: water 111 % of control | dose: 0.25 mg/kg/injection, schedule: Q01DX009 (ip), vehicle: clinical formulation 102 % of control | dose: 0.25 mg/kg/injection, schedule: Q01DX009 (ip), vehicle: saline 100 % of control and 104 % of control and 111 % of control | dose: 0.25 mg/kg/injection, schedule: Q01DX009 (ip), vehicle: water 98 % of control | dose: 0.4 mg/kg/injection, schedule: Q01DX009 (ip), vehicle: water 111 % of control | dose: 0.5 mg/kg/injection, schedule: Q01DX009 (ip), vehicle: clinical formulation 100 % of control | dose: 0.5 mg/kg/injection, schedule: Q01DX009 (ip), vehicle: saline 97 % of control and 105 % of control and 121 % of control | dose: 0.5 mg/kg/injection, schedule: Q01DX009 (ip), vehicle: water 98 % of control | dose: 0.6 mg/kg/injection, schedule: Q01DX009 (ip), vehicle: water 102 % of control | dose: 0.75 mg/kg/injection, schedule: Q01DX009 (ip), vehicle: saline 104 % of control | dose: 1.0 mg/kg/injection, schedule: Q01DX009 (ip), vehicle: clinical formulation 105 % of control | dose: 1.0 mg/kg/injection, schedule: Q01DX009 (ip), vehicle: saline 97 % of control and 106 % of control and 109 % of control | dose: 62.0 micrograms/kg/injection, schedule: Q01DX009 (ip), vehicle: saline 98 % of control | dose: 125.0 micrograms/kg/injection, schedule: Q01DX009 (ip), vehicle: saline 105 % of control | dose: 125.0 micrograms/kg/injection, schedule: Q01DX009 (ip), vehicle: water 94 % of control | dose: 250.0 micrograms/kg/injection, schedule: Q01DX009 (ip), vehicle: saline 119 % of control | dose: 500.0 micrograms/kg/injection, schedule: Q01DX009 (ip), vehicle: saline 111 % of control | dose: 500.0 micrograms/kg/injection, schedule: Q01DX009 (ip), vehicle: water 110 % of control | dose: 1000.0 micrograms/kg/injection, schedule: Q01DX009 (ip), vehicle: saline 115 % of control | dose: 1000.0 micrograms/kg/injection, schedule: Q01DX009 (ip), vehicle: water 109 % of control

Cc1c2oc3c(C)ccc(C(=O)NC4C(=O)NC(C(C)C)C(=O)N5CCCCC5C(=O)N(C)CC(=O)N(C)C(C(C)C)C(=O)OC4C)c3nc-2c(C(=O)NC2C(=O)NC(C(C)C)C(=O)N3CCCCC3C(=O)N(C)CC(=O)N(C)C(C(C)C)C(=O)OC2C)c(N)c1=O (stereo unspecified) (I: TV[Pip][Sar][NMeV] / II: TV[Pip][Sar][NMeV]; ester I:1-I:C, II:1-II:C; linker I:N-II:N via Actinocin(9to1); configuration not given here)
active: dose: 2.0 mg/kg/injection, schedule: Q01DX009 (ip), vehicle: saline + alcohol 157 % of control | dose: 6.0 mg/kg/injection, schedule: Q04DX003 (ip), vehicle: saline + alcohol 155 % of control
inactive: dose: 0.25 mg/kg/injection, schedule: Q01DX009 (ip), vehicle: saline + alcohol 120 % of control | dose: 0.5 mg/kg/injection, schedule: Q01DX009 (ip), vehicle: saline + alcohol 123 % of control | dose: 0.75 mg/kg/injection, schedule: Q04DX003 (ip), vehicle: saline + alcohol 99 % of control and 116 % of control | dose: 1.5 mg/kg/injection, schedule: Q04DX003 (ip), vehicle: saline + alcohol 111 % of control and 116 % of control

COc1ccc([I+]c2cccc(Cl)c2)cc1Cl
inactive: [3] 112 % of control | [4] 112 % of control | dose: 25.0 mg/kg/injection, schedule: Q01DX009 (ip), vehicle: saline with Tween-80 104 % of control

C=CCN(CC=C)CCN(CC)CC
inactive: [1] 93 % of control | [5] 94 % of control | [6] 94 % of control | [7] 91 % of control

COC(=O)c1cc(Cl)ccc1OCC(=O)Nc1ccc([N+](=O)[O-])cc1
inactive: dose: 50.0 mg/kg/injection, schedule: Q01DX009 (ip), vehicle: Klucel (hydroxypropylcellulose) (HPC) 100 % of control | [2] 100 % of control

C=C1CCN(c2ccc(Br)cc2)C1=O
inactive: dose: 4.0 mg/kg/injection, schedule: Q01DX009 (ip), vehicle: saline + alcohol 95 % of control | dose: 8.0 mg/kg/injection, schedule: Q01DX009 (ip), vehicle: saline + alcohol 101 % of control | dose: 16.0 mg/kg/injection, schedule: Q01DX009 (ip), vehicle: saline + alcohol 109 % of control | dose: 32.0 mg/kg/injection, schedule: Q01DX009 (ip), vehicle: saline + alcohol 95 % of control | dose: 64.0 mg/kg/injection, schedule: Q01DX009 (ip), vehicle: saline + alcohol 101 % of control

C/C=C1/CC(C)C(C)(O)C(=O)OCC2CCN3CCC(OC1=O)C23 (stereo unspecified)
inactive: [5] 109 % of control | [6] 109 % of control | [7] 102 % of control | [8] 107 % of control

CC1(c2ccc(Cl)cc2)OC(=O)C(=Cc2ccc([N+](=O)[O-])s2)C(=O)O1 (stereo unspecified)
inactive: [3] 92 % of control | [4] 87 % of control

COc1ccc(NC(=O)Nc2ccc(Cl)cc2)cc1
inactive: dose: 100.0 mg/kg/injection, schedule: Q04DX003 (ip), vehicle: Klucel (hydroxypropylcellulose) (HPC) 100 % of control | dose: 200.0 mg/kg/injection, schedule: Q04DX003 (ip), vehicle: Klucel (hydroxypropylcellulose) (HPC) 95 % of control | dose: 400.0 mg/kg/injection, schedule: Q04DX003 (ip), vehicle: Klucel (hydroxypropylcellulose) (HPC) 90 % of control

O=C(Nc1nccs1)C(F)(F)F
inactive: [7] 98 % of control | [8] 106 % of control | dose: 200.0 mg/kg/injection, schedule: Q01DX009 (ip), vehicle: saline 103 % of control | dose: 400.0 mg/kg/injection, schedule: Q01DX009 (ip), vehicle: saline 97 % of control
